Reference: patent US11229618B2 (Amarin Pharmaceuticals Ireland Limited, priority 2012, dated 2022)

Tests used:
[1] = Phase 1 multidose pharmacokinetic study: safety and tolerability; assay type: in vivo, human; conditions: all groups
Description: The safety population was defined as all randomized subjects who received at least one dose of study drug. The per-protocol population was defined as all safety population subjects who completed the 28-day treatment period without any major protocol deviations, and who provided blood samples for EPA analyses.
Safety assessments consisted of adverse event (AE) monitoring, clinical laboratory measurements (chemistry, hematology, and urinalysis) 12-lead electrocardiographic measurements, vital signs (systolic and diastolic blood pressure, heart rate, respiratory rate, and oral body temperature) and physical examination findings.

[2] = ANCHOR: plasma fatty acid concentrations, ratios and class proportions (GC/FID); assay type: in vivo, human; conditions: for AA plasma Placebo-adjusted percent change from baseline / DHA plasma Placebo-adjusted percent change from baseline / DPAn-3 plasma Placebo-adjusted percent change from baseline / Linoleic plasma Placebo-adjusted percent change from baseline / Oleic plasma Placebo-adjusted percent change from baseline / Palmitic plasma Placebo-adjusted percent change from baseline / Ratio of AA/EPA plasma Placebo-adjusted percent change from baseline / Ratio of total ω-3/total ω-6 plasma Placebo-adjusted percent change from baseline / Stearic plasma Placebo-adjusted percent change from baseline: week 12, LS mean; for Monounsaturated, proportion of total fatty acids, plasma, Change from baseline / Saturated, proportion of total fatty acids, plasma, Change from baseline / Total ω-3, proportion of total fatty acids, plasma, Change from baseline / Total ω-6, proportion of total fatty acids, plasma, Change from baseline: LS mean (SE); for AA plasma Change from baseline / DHA plasma Change from baseline / DPAn-3 plasma Change from baseline / Linoleic plasma Change from baseline / Oleic plasma Change from baseline / Palmitic plasma Change from baseline / Ratio of AA/EPA plasma Change from baseline / Ratio of total ω-3/total ω-6 plasma Change from baseline / Stearic plasma Change from baseline: baseline to week 12, LS mean; for AA plasma End-of-treatment / DHA plasma End-of-treatment / DPAn-3 plasma End-of-treatment / Linoleic plasma End-of-treatment / Oleic plasma End-of-treatment / Palmitic plasma End-of-treatment / Ratio of AA/EPA plasma End-of-treatment / Ratio of total ω-3/total ω-6 plasma End-of-treatment / Stearic plasma End-of-treatment: week 12, mean; for Monounsaturated, proportion of total fatty acids, plasma, End-of-treatment / Saturated, proportion of total fatty acids, plasma, End-of-treatment / Total ω-3, proportion of total fatty acids, plasma, End-of-treatment / Total ω-6, proportion of total fatty acids, plasma, End-of-treatment: week 12, mean (SD)
Description: A multi-center, placebo-controlled, randomized, double-blind, 12-week study was performed to evaluate the efficacy and safety of >96% E-EPA in patients with fasting triglyceride levels≥200 mg/dl and <500 mg/dl despite statin therapy (the mean of two qualifying entry values needed to be ≥185 mg/dl and at least one of the values needed to be ≥200 mg/dl). The primary objective of the study was to determine the efficacy of >96% E-EPA 2 g daily and 4 g daily, compared to placebo, in lowering fasting TG levels in patients with high risk for cardiovascular disease and with fasting TG levels≥200 mg/dL and <500 mg/dL, despite treatment to LDL-C goal on statin therapy.
During the double-blind treatment period, patients were to take 2 capsules (>96% E-EPA or matching placebo) in the morning and 2 capsules in the evening for a total of 4 capsules per day. • Patients in the >96% E-EPA 2 g/day treatment group received 1>96% E-EPA 1 g capsule and 1 matching placebo capsule in the morning and in the evening. • Patients in the >96% E-EPA 4 g/day treatment group received 2>96% E-EPA 1 g capsules in the morning and evening. • Patients in the placebo group received 2 matching placebo capsules in the morning and evening.
Lipids were extracted from plasma and red blood cell (“RBC”) suspensions and converted into fatty acid methyl esters for analysis using a standard validated gas chromatography/flame ionization detection method. Fatty acid parameters were compared between EPA treatment groups and placebo using an ANCOVA model with treatment, gender, type of statin therapy, and presence of diabetes as factors, and the baseline parameter value as a covariate. LSMs, SEs, and 2-tailed 95% confidence intervals for each treatment group and for each comparison were determined.
The monounsaturated fatty acid group included myristoleic, palmitoleic, cis-vaccenic, oleic, gondoic/gadoleic, erucic and nervonic acids. The saturated fatty acid group included myristic, palmitic, stearic, arachidic, behenic and lignoceric acids. The “total ω-3” group included α-linolenic, stearidonic, eicosatrienoic, ω-3 arachidonic, eicosapentaenoic, ω-3 docosapentaenoic and docosahecaenoic acids. The “total ω-6” group included linoleic, γ-linolenic, eicosadienoic, dihomo-γ-linolenic, ω-6 arachidonic, adrenic, and ω-6 docosapentaenoic acids. The “total fatty acid” group represented the sum of the monounsaturated, saturated, total ω-3 and total ω-6 groups.

CC/C=C\C/C=C\C/C=C\C/C=C\C/C=C\CCCC(=O)OCC [IPE, all-cis eicosa-5,8,11,14,17-pentaenoic acid ethyl ester]
changes in laboratory, electrocardiographic, or physical examination findings [1]: no clinically meaningful changes | intensity of adverse events [1]: mild or moderate in intensity | Monounsaturated, proportion of total fatty acids, plasma, Placebo-adjusted percent change from baseline ([2]; 2 g/day vs placebo): −1.4% | Saturated, proportion of total fatty acids, plasma, Placebo-adjusted percent change from baseline ([2]; 2 g/day vs placebo): −0.2% | Total ω-3, proportion of total fatty acids, plasma, Placebo-adjusted percent change from baseline ([2]; 2 g/day vs placebo): 60.3% | Total ω-6, proportion of total fatty acids, plasma, Placebo-adjusted percent change from baseline ([2]; 2 g/day vs placebo): −4.6% | AA plasma Placebo-adjusted percent change from baseline ([2]; 2 g/day vs placebo): −19.1% | DHA plasma Placebo-adjusted percent change from baseline ([2]; 2 g/day vs placebo): −0.7% | DPAn-3 plasma Placebo-adjusted percent change from baseline ([2]; 2 g/day vs placebo): 88.9% | Linoleic plasma Placebo-adjusted percent change from baseline ([2]; 2 g/day vs placebo): −14.5% | Oleic plasma Placebo-adjusted percent change from baseline ([2]; 2 g/day vs placebo): −14.3% | Palmitic plasma Placebo-adjusted percent change from baseline ([2]; 2 g/day vs placebo): −12.1% | Ratio of AA/EPA plasma Placebo-adjusted percent change from baseline ([2]; 2 g/day vs placebo): −75.4% | Ratio of total ω-3/total ω-6 plasma Placebo-adjusted percent change from baseline ([2]; 2 g/day vs placebo): 64.3% | Stearic plasma Placebo-adjusted percent change from baseline ([2]; 2 g/day vs placebo): −12.6% | Monounsaturated, proportion of total fatty acids, plasma, Change from baseline ([2]; 2 g/day): −0.7 (0.4) mol % | Saturated, proportion of total fatty acids, plasma, Change from baseline ([2]; 2 g/day): −0.7 (0.3) mol % | Total ω-3, proportion of total fatty acids, plasma, Change from baseline ([2]; 2 g/day): 2.1 (0.2) mol % | Total ω-6, proportion of total fatty acids, plasma, Change from baseline ([2]; 2 g/day): −0.8 (0.5) mol % | AA plasma Change from baseline ([2]; 2 g/day): −31.1 | DHA plasma Change from baseline ([2]; 2 g/day): 5.0 | DPAn-3 plasma Change from baseline ([2]; 2 g/day): 22.4 | Linoleic plasma Change from baseline ([2]; 2 g/day): −35.0 | Oleic plasma Change from baseline ([2]; 2 g/day): −61.7 | Palmitic plasma Change from baseline ([2]; 2 g/day): −50.1 | Ratio of AA/EPA plasma Change from baseline ([2]; 2 g/day): −11.2 | Ratio of total ω-3/total ω-6 plasma Change from baseline ([2]; 2 g/day): 0.1 | Stearic plasma Change from baseline ([2]; 2 g/day): −19.6 | AA plasma End-of-treatment ([2]; 2 g/day): 266.7 | DHA plasma End-of-treatment ([2]; 2 g/day): 62.7 | DPAn-3 plasma End-of-treatment ([2]; 2 g/day): 44.3 | Linoleic plasma End-of-treatment ([2]; 2 g/day): 1082 | Oleic plasma End-of-treatment ([2]; 2 g/day): 972.1 | Palmitic plasma End-of-treatment ([2]; 2 g/day): 1004 | Ratio of AA/EPA plasma End-of-treatment ([2]; 2 g/day): 3.4 | Ratio of total ω-3/total ω-6 plasma End-of-treatment ([2]; 2 g/day): 0.2 | Stearic plasma End-of-treatment ([2]; 2 g/day): 276.2 | Monounsaturated, proportion of total fatty acids, plasma, End-of-treatment ([2]; 2 g/day): 28.0 (2.8) mol % | Saturated, proportion of total fatty acids, plasma, End-of-treatment ([2]; 2 g/day): 33.6 (2.2) mol % | Total ω-3, proportion of total fatty acids, plasma, End-of-treatment ([2]; 2 g/day): 5.1 (1.2) mol % | Total ω-6, proportion of total fatty acids, plasma, End-of-treatment ([2]; 2 g/day): 33.3 (3.4) mol % | Monounsaturated, proportion of total fatty acids, plasma, Placebo-adjusted percent change from baseline ([2]; 4 g/day vs placebo): −5.8% | Saturated, proportion of total fatty acids, plasma, Placebo-adjusted percent change from baseline ([2]; 4 g/day vs placebo): 0.4% | Total ω-3, proportion of total fatty acids, plasma, Placebo-adjusted percent change from baseline ([2]; 4 g/day vs placebo): 142.2% | Total ω-6, proportion of total fatty acids, plasma, Placebo-adjusted percent change from baseline ([2]; 4 g/day vs placebo): −7.4% | AA plasma Placebo-adjusted percent change from baseline ([2]; 4 g/day vs placebo): −30.7% | DHA plasma Placebo-adjusted percent change from baseline ([2]; 4 g/day vs placebo): −2.9% | DPAn-3 plasma Placebo-adjusted percent change from baseline ([2]; 4 g/day vs placebo): 143.6% | Linoleic plasma Placebo-adjusted percent change from baseline ([2]; 4 g/day vs placebo): −24.8% | Oleic plasma Placebo-adjusted percent change from baseline ([2]; 4 g/day vs placebo): −30.1% | Palmitic plasma Placebo-adjusted percent change from baseline ([2]; 4 g/day vs placebo): −23.3% | Ratio of AA/EPA plasma Placebo-adjusted percent change from baseline ([2]; 4 g/day vs placebo): −90.3% | Ratio of total ω-3/total ω-6 plasma Placebo-adjusted percent change from baseline ([2]; 4 g/day vs placebo): 165.9% | Stearic plasma Placebo-adjusted percent change from baseline ([2]; 4 g/day vs placebo): −16.5% | Monounsaturated, proportion of total fatty acids, plasma, Change from baseline ([2]; 4 g/day): −2.0 (0.4) mol % | Saturated, proportion of total fatty acids, plasma, Change from baseline ([2]; 4 g/day): −0.5 (0.3) mol % | Total ω-3, proportion of total fatty acids, plasma, Change from baseline ([2]; 4 g/day): 4.4 (0.2) mol % | Total ω-6, proportion of total fatty acids, plasma, Change from baseline ([2]; 4 g/day): −1.8 (0.5) mol % | AA plasma Change from baseline ([2]; 4 g/day): −60.1 | DHA plasma Change from baseline ([2]; 4 g/day): 2.3 | DPAn-3 plasma Change from baseline ([2]; 4 g/day): 31.8 | Linoleic plasma Change from baseline ([2]; 4 g/day): −152 | Oleic plasma Change from baseline ([2]; 4 g/day): −219 | Palmitic plasma Change from baseline ([2]; 4 g/day): −161 | Ratio of AA/EPA plasma Change from baseline ([2]; 4 g/day): −14.1 | Ratio of total ω-3/total ω-6 plasma Change from baseline ([2]; 4 g/day): 0.2 | Stearic plasma Change from baseline ([2]; 4 g/day): −31.2 | AA plasma End-of-treatment ([2]; 4 g/day): 222.8 | DHA plasma End-of-treatment ([2]; 4 g/day): 53.6 | DPAn-3 plasma End-of-treatment ([2]; 4 g/day): 50.2 | Linoleic plasma End-of-treatment ([2]; 4 g/day): 921.8 | Oleic plasma End-of-treatment ([2]; 4 g/day): 782.5 | Palmitic plasma End-of-treatment ([2]; 4 g/day): 843.8 | Ratio of AA/EPA plasma End-of-treatment ([2]; 4 g/day): 1.6 | Ratio of total ω-3/total ω-6 plasma End-of-treatment ([2]; 4 g/day): 0.2 | Stearic plasma End-of-treatment ([2]; 4 g/day): 253.4 | Monounsaturated, proportion of total fatty acids, plasma, End-of-treatment ([2]; 4 g/day): 26.7 (3.0) mol % | Saturated, proportion of total fatty acids, plasma, End-of-treatment ([2]; 4 g/day): 33.6 (2.4) mol % | Total ω-3, proportion of total fatty acids, plasma, End-of-treatment ([2]; 4 g/day): 7.1 (2.0) mol % | Total ω-6, proportion of total fatty acids, plasma, End-of-treatment ([2]; 4 g/day): 32.6 (3.5) mol %
